For one assay, the target named is mouse TAAR1 (Mus musculus (Mouse), UniProt Q923Y8). As to the kind of experiment: Radioligand binding assay on mouse TAAR1. Particulars: mouse TAAR1 (first value of the cell), HEK-293 membranes; read-out: Ki (μM) mouse/rat. An outline of the steps:
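Membranes from HEK293 cells stably expressing mouse TAAR1, Kd of radioligand determined per batch by saturation. Compounds tested 10 pM to 10 μM in duplicate, incubated 1 h at 4 °C, then filtration over PEI-soaked GF/C filters and scintillation counting.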

A further assay concerns the target rat TAAR1 (Rattus norvegicus (Rat), UniProt Q923Y9). As to the kind of experiment: Radioligand binding assay on rat TAAR1. The settings on record: rat TAAR1 (second value of the cell), HEK-293 membranes; read-out: Ki (μM) mouse/rat. Put shortly:
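Membranes from HEK293 cells stably expressing rat TAAR1 were used, with radioligand Kd determined by saturation for each batch. Compounds (10 pM to 10 μM, in duplicate) were incubated for 1 h at 4 °C. Bound radioactivity was collected by filtration onto PEI-soaked GF/C filters and counted by scintillation.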

Some results are limits rather than exact numbers.

Sequence of mouse TAAR1 (Q923Y8 whole entry): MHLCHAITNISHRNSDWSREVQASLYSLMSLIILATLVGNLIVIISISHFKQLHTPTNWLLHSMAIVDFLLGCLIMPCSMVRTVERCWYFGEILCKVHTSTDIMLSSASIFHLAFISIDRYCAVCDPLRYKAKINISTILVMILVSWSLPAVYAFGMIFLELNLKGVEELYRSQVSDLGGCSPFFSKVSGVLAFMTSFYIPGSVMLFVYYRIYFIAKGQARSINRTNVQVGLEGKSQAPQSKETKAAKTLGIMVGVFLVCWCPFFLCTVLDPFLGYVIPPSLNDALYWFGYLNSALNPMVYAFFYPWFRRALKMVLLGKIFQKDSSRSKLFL
Sequence of rat TAAR1 (Q923Y9 whole entry): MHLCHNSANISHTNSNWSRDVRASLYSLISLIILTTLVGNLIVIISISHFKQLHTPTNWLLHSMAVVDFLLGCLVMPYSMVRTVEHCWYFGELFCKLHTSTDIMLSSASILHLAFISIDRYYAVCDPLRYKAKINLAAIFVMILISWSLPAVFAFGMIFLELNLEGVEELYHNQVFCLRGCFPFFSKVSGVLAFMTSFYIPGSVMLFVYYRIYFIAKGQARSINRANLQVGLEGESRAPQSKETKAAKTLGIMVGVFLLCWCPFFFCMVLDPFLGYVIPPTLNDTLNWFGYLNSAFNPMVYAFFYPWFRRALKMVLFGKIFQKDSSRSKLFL

For `Cc1cc([C@H]2CNCCO2)ccc1Nc1ncc(C(F)(F)F)cn1` [Example 167, ((S)-2-Methyl-4-morpholin-2-yl-phenyl)-(5-trifluoromethyl-pyrimidin-2-yl)-amine], the Ki was determined as 0.112 µM at mouse TAAR1 and 1.35 µM at rat TAAR1.
As to `FC(F)(F)c1cnc(Nc2ccc([C@@H]3CNCCO3)cc2Cl)nc1` [Example 168, ((R)-2-Chloro-4-morpholin-2-yl-phenyl)-(5-trifluoromethyl-pyrimidin-2-yl)-amine], the Ki on mouse TAAR1 is 0.0077 µM; at rat TAAR1, 0.0065 µM.
For `FC(F)(F)c1cnc(Nc2ccc([C@H]3CNCCO3)cc2Cl)nc1` [Example 169, ((S)-2-Chloro-4-morpholin-2-yl-phenyl)-(5-trifluoromethyl-pyrimidin-2-yl)-amine] the same measures were 0.0243 µM and 0.0397 µM.
As for `FC(F)(F)COc1ccnc(Nc2ccc([C@@H]3CNCCO3)cc2)n1` [Example 172, ((R)-4-Morpholin-2-yl-phenyl)-[4-(2,2,2-trifluoro-ethoxy)-pyrimidin-2-yl]-amine], the Ki at mouse TAAR1 turned out to be 0.0035 µM; on rat TAAR1, 0.0162 µM.
In the same order, the values of `FC(F)(F)c1ccnc(Nc2ccc([C@@H]3CNCCO3)cc2)n1` [Example 173, (R)—N-(4-(Morpholin-2-yl)phenyl)-4-(trifluoromethyl)pyrimidin-2-amine] are 0.0044 µM and 0.0625 µM.
In the same order, the values of `FC(F)Oc1cnc(Oc2cnc(Nc3ccc([C@@H]4CNCCO4)cc3)nc2)nc1` [Example 174, (R)-5-(5-(Difluoromethoxy)pyrimidin-2-yloxy)-N-(4-(morpholin-2-yl)phenyl)pyrimidin-2-amine] are 0.0088 µM and 0.0628 µM.
For `FC(F)Oc1cnc(Oc2cnc(Nc3ccc([C@@H]4CNCCO4)cc3Cl)nc2)nc1` [Example 175, (R)—N-(2-Chloro-4-(morpholin-2-yl)phenyl)-5-(5-(difluoromethoxy)pyrimidin-2-yloxy)pyrimidin-2-amine] the same measures were 0.006 µM and 0.0066 µM.
For `c1cnc(Nc2ccc([C@@H]3CNCCO3)cc2)nc1` [Example 176, (R)—N-(4-(Morpholin-2-yl)phenyl)pyrimidin-2-amine], the Ki was 0.152 µM on mouse TAAR1 and above 10 µM on rat TAAR1.
In the case of `c1ccc2nc(Nc3ccc([C@@H]4CNCCO4)cc3)ncc2c1` [Example 177, ((R)-4-Morpholin-2-yl-phenyl)-quinazolin-2-yl-amine], the Ki on mouse TAAR1 was found to be 0.0028 µM; at rat TAAR1, 0.0299 µM.
For `Cc1cc(C(F)(F)F)nc(Nc2ccc([C@@H]3CNCCO3)cc2)n1` [Example 178, (4-Methyl-6-trifluoromethyl-pyrimidin-2-yl)-((R)-4-morpholin-2-yl-phenyl)-amine] the same measures were 0.0043 µM and 0.0298 µM.
In the same order, the values of `FC(F)Oc1cnc(Nc2ccc([C@@H]3CNCCO3)cc2)nc1` [Example 179, (R)-5-(Difluoromethoxy)-N-(4-(morpholin-2-yl)phenyl)pyrimidin-2-amine] are 0.0047 µM and 0.0517 µM.
In the same order, the values of `COc1cc(Cl)nc(Nc2ccc([C@@H]3CNCCO3)cc2)n1` [Example 180, (4-Chloro-6-methoxy-pyrimidin-2-yl)-((R)-4-morpholin-2-yl-phenyl)-amine] are 0.0058 µM and 0.033 µM.
Consider `N#Cc1ccnc(Nc2ccc([C@@H]3CNCCO3)cc2)n1` [Example 181, 2-((R)-4-Morpholin-2-yl-phenylamino)-pyrimidine-4-carbonitrile], for which the Ki at mouse TAAR1 came out at 0.0084 µM; on rat TAAR1, 0.398 µM.
For `Cc1cc(C)nc(Nc2ccc([C@@H]3CNCCO3)cc2)n1` [Example 182, (4,6-Dimethyl-pyrimidin-2-yl)-((R)-4-morpholin-2-yl-phenyl)-amine] the same measures were 0.0144 µM and 0.447 µM.
For `COc1cc(OC)nc(Nc2ccc([C@@H]3CNCCO3)cc2)n1` [Example 183, (4,6-Dimethoxy-pyrimidin-2-yl)-((R)-4-morpholin-2-yl-phenyl)-amine], the Ki was 0.0094 µM on mouse TAAR1 and 0.174 µM at rat TAAR1.
For `FC(F)(F)c1cnc(Nc2ccc([C@@H]3CNCCO3)cc2)c(Cl)c1` [Example 185, (R)-3-Chloro-N-(4-(morpholin-2-yl)phenyl)-5-(trifluoromethyl)pyridin-2-amine] the same measures were 0.0549 µM and 0.0888 µM.
In the case of `Clc1ncc(Cl)c(Nc2ccc([C@H]3CNCCO3)cc2)n1` [Example 186, (S)-2,5-Dichloro-N-(4-(morpholin-2-yl)phenyl)pyrimidin-4-amine], the Ki at mouse TAAR1 turned out to be 0.138 µM; at rat TAAR1, 1.1 µM.
For the molecule `FC(F)(F)COc1ccnc(Nc2ccc([C@H]3CNCCO3)cc2)n1` [Example 187, ((S)-4-Morpholin-2-yl-phenyl)-[4-(2,2,2-trifluoro-ethoxy)-pyrimidin-2-yl]-amine], the values for the Ki on mouse TAAR1 and at rat TAAR1 were 0.0021 µM and 0.01 µM, respectively.
For `c1cc(C2CC2)nc(Nc2ccc([C@@H]3CNCCO3)cc2)n1` [Example 189, (4-Cyclopropyl-pyrimidin-2-yl)-((R)-4-morpholin-2-yl-phenyl)-amine] the same measures were 0.109 µM and 0.0605 µM.
For `Fc1cnc(Nc2ccc([C@@H]3CNCCO3)cc2)nc1C1CC1` [Example 190, (4-Cyclopropyl-5-fluoro-pyrimidin-2-yl)-((R)-4-morpholin-2-yl-phenyl)-amine], the figures for the Ki at mouse TAAR1 and at rat TAAR1 were 0.0031 µM and 0.0422 µM, respectively.
`FS(F)(F)(F)(F)c1ccc(Nc2ccc([C@@H]3CNCCO3)cc2)cc1` [Example 191, (4-Pentalluorosulfanyl-phenyl)-((R)-4-morpholin-2-yl-phenyl)-amine]: the Ki at mouse TAAR1 is 0.001 µM; on rat TAAR1 it was 0.0032 µM.
For `Fc1cc(Nc2ncc(C3CC3)cn2)ccc1[C@@H]1CNCCO1` [Example 192, (R)-5-Cyclopropyl-N-(3-fluoro-4-(morpholin-2-yl)phenyl)pyrimidin-2-amine] the same measures were 0.0025 µM and 0.0026 µM.
In the same order, the values of `Clc1cc(Nc2ncc(C3CC3)cn2)ccc1[C@H]1CNCCO1` [Example 193, ((S)-3-Chloro-4-morpholin-2-yl-phenyl)-(5-cyclopropyl-pyrimidin-2-yl)-amine] are 0.0038 µM and 0.0196 µM.
For `Clc1cc(Nc2ncc(C3CC3)cn2)ccc1[C@@H]1CNCCO1` [Example 194, ((R)-3-Chloro-4-morpholin-2-yl-phenyl)-(5-cyclopropyl-pyrimidin-2-yl)-amine] the same measures were 0.0021 µM and 0.0011 µM.
Regarding `Fc1cc(Nc2ncc(C3CC3)cn2)ccc1[C@H]1CNCCO1` [Example 195, (S)-5-Cyclopropyl-N-(3-fluoro-4-(morpholin-2-yl)phenyl)pyrimidin-2-amine], the Ki at mouse TAAR1 is 0.0017 µM; at rat TAAR1, 0.0252 µM.
For the molecule `Fc1cc(Nc2ncc(C(F)(F)F)cn2)ccc1[C@@H]1CNCCO1` [Example 196, (R)—N-(3-Fluoro-4-(morpholin-2-yl)phenyl)-5-(trifluoromethyl)pyrimidin-2-amine], the Ki at mouse TAAR1 was found to be 0.0049 µM; at rat TAAR1, 0.004 µM.
For `Fc1cc(Nc2ncc(C(F)(F)F)cn2)ccc1[C@H]1CNCCO1` [Example 197, (S)—N-(3-Fluoro-4-(morpholin-2-yl)phenyl)-5-(trifluoromethyl)pyrimidin-2-amine] the same measures were 0.0031 µM and 0.0315 µM.
In the same order, the values of `FC(F)(F)c1cc(Nc2ccc([C@@H]3CNCCO3)cc2)ncn1` [Example 198, (R)—N-(4-(Morpholin-2-yl)phenyl)-6-(trifluoromethyl)pyrimidin-4-amine] are 0.0419 µM and 0.163 µM.
For `Clc1cc(Nc2ccc([C@@H]3CNCCO3)cc2)ncn1` [Example 199, (R)-6-Chloro-N-(4-(morpholin-2-yl)phenyl)pyrimidin-4-amine], the Ki was 0.0231 µM at mouse TAAR1 and 0.056 µM at rat TAAR1.
As for `FC(F)(F)c1nccc(Nc2ccc([C@@H]3CNCCO3)cc2)n1` [Example 200, (R)—N-(4-(morpholin-2-yl)phenyl)-2-(trifluoromethyl)pyrimidin-4-amine], the figures for the Ki at mouse TAAR1 and on rat TAAR1 were 0.0089 µM and 0.0588 µM, respectively.
On to `FC(F)(F)c1cnc(Nc2ccc([C@@H]3CNCCO3)cc2)cn1` [Example 201, (R)—N-(4-(Morpholin-2-yl)phenyl)-5-(trffluoromethyl)pyrazin-2-amine], for which the values for the Ki at mouse TAAR1 and at rat TAAR1 were 0.008 µM and 0.0626 µM, respectively.
In the same order, the values of `Clc1cnc(Nc2ccc([C@@H]3CNCCO3)c(Cl)c2)nc1` [Example 202, ((R)-3-Chloro-4-morpholin-2-yl-phenyl)-(5-chloro-pyrimidin-2-yl)-amine] are 0.0032 µM and 0.0065 µM.
For `FC(F)(F)COc1cnc(Nc2ccc([C@@H]3CNCCO3)c(Cl)c2)nc1` [Example 203, ((R)-3-Chloro-4-morpholin-2-yl-phenyl)-[5-(2,2,2-trifluoro-ethoxy)-pyrimidin-2-yl]-amine] the same measures were 0.0022 µM and 0.0017 µM.
For `FC(F)(F)c1cnc(Nc2ccc([C@@H]3CNCCO3)c(Cl)c2)nc1` [Example 204, ((R)-3-Chloro-4-morpholin-2-yl-phenyl)-(5-trifluoromethyl-pyrimidin-2-yl)-amine] the same measures were 0.0038 µM and 0.0021 µM.
`Clc1cnc(Nc2ccc([C@@H]3CNCCO3)cc2)cn1` [Example 205, (R)-5-Chloro-N-(4-(morpholin-2-yl)phenyl)pyrazin-2-amine]: the Ki was determined as 0.0026 µM on mouse TAAR1 and 0.162 µM on rat TAAR1.
As for `Clc1cncc(Nc2ccc([C@@H]3CNCCO3)cc2)n1` [Example 206, (R)-6-Chloro-N-(4-(morpholin-2-yl)phenyl)pyrazin-2-amine], the Ki on mouse TAAR1 amounted to 0.005 µM; at rat TAAR1, 0.0963 µM.

The record behind these values is patent publication US8802673B2, “Heterocyclic amine derivatives” (Hoffmann-La Roche Inc, priority 2011, dated 2014).
